Test results published in ChEMBL document CHEMBL1135348, “Synthesis and anticancer evaluation of vitamin K(3) analogues” (Bioorg Med Chem Lett, 2002).

How the values were obtained:
Detroit 551 [1] = assay: Concentration required for 50% inhibition of growth in normal human embryonic skin fibroblast (Detroit551c) cell line was determined; type: functional, cell-based
A549 = assay: Concentration required for 50% inhibition of growth in human lung carcinoma cell line was determined; type: functional, cell-based
WI-38 = assay: Concentration required for 50% inhibition of growth in normal human lung fibroblast (WI-38 cell line) cell line was determined; type: functional, cell-based
MKN-45 = assay: Concentration required for 50% inhibition of growth in human stomach adenocarcinoma (MKN45) cell line was determined; type: functional, cell-based
MES-SA = assay: Concentration required for 50% inhibition of growth in human uterine sarcoma (MES-SA) cell line was determined; type: functional, cell-based
MCF7 = assay: Concentration required for 50% inhibition of growth in mammary gland breast adenocarcinoma (MCF-7) cell line was determined; type: functional, cell-based; settings: Homo sapiens
[2] = Concentration required for 50% inhibition of growth in human multidrug resistance uterine sarcoma (MES-SA/Dx5 ) cell line was determined; type: functional, cell-based
HepG2 = assay: Concentration required for 50% inhibition of growth in human liver hepatoblastoma (Hep G2) cell line was determined; type: functional, cell-based
SW480 = assay: Concentration required for 50% inhibition of growth in human colon adenocarcinoma (SW-480) cell line.; type: functional, cell-based
NPC-TW-039 = assay: Concentration required for 50% inhibition of growth in human nasopharyngeal carcinoma (TW-039) cell line was determined
[3] = Dose required for 50% inhibition of growth of Hep3B cells; type: functional, Hep 3B2; settings: Homo sapiens, read-out: ID50 (the source's name)
Detroit 551 [4] = assay: Concentration required for 50% inhibition of growth in normal human embryonic skin fibroblast cell line was determined; type: functional, cell-based

IC50 (A549)	IC50 (MKN-45)	IC50 (MCF7)	IC50 (HepG2)	IC50 (SW480)	IC50 (NPC-TW-039)	SMILES	IC50 (Detroit 551 [1])	IC50 (WI-38)	IC50 (MES-SA)	IC50 [2]	IC50 [3]	IC50 (Detroit 551 [4])
> 10 µM	6.4 µM	5.16 µM	9.53 µM	4.85 µM	> 10 µM	CC1=C(SCCCO)C(=O)c2ccccc2C1=O	5.26 µM	> 10 µM	> 10 µM	> 10 µM		
						CCCCC1=C(C)C(=O)c2ccccc2C1=O					78 µM	
> 10 µM	6.78 µM	5.78 µM	> 10 µM	4.51 µM	> 10 µM	CC1=C(SCCCCO)C(=O)c2ccccc2C1=O		> 10 µM	> 10 µM	> 10 µM		7.57 µM
> 10 µM	> 10 µM	9.28 µM	> 10 µM	> 10 µM	> 10 µM	CC1=C(SCCCCCCO)C(=O)c2ccccc2C1=O		> 10 µM	> 10 µM	> 10 µM		> 10 µM
						CCCCCCCCSC1=C(C)C(=O)c2ccccc2C1=O					100 µM	
> 10 µM	5.16 µM	5.19 µM	8.4 µM	5.14 µM	> 10 µM	CC1=C(SCCO)C(=O)c2ccccc2C1=O	8.17 µM	7.37 µM	> 10 µM	> 10 µM	5.6 µM	
						CCCCOC1=C(C)C(=O)c2ccccc2C1=O					55 µM	
						CCCCCCCCOC1=C(C)C(=O)c2ccccc2C1=O					140 µM	
> 10 µM	5.64 µM	> 10 µM	> 10 µM	5.53 µM	> 10 µM	CC1=C(SC(C)C(C)O)C(=O)c2ccccc2C1=O (stereo not drawn)		> 10 µM	> 10 µM	> 10 µM		> 10 µM
						CCCSC1=C(C)C(=O)c2ccccc2C1=O					14 µM	
						CCCCSC1=C(C)C(=O)c2ccccc2C1=O					15 µM	
4.74 µM	3.92 µM	4.61 µM	5.59 µM	5.19 µM	> 10 µM	CC1=C(SCC(C)O)C(=O)c2ccccc2C1=O (racemic)	4.61 µM	5.06 µM	7.11 µM	5.1 µM		
						CC1=CC(=O)c2ccccc2C1=O [MENADIONE]					10 µM	
